Measurements published in patent US20060160818A1, “Ocular hypotensive agent” (priority 2003, published 2006).
Structures can show the parent of a compound that is named as a salt.

System: ocular tension
Experiment: Ocular tension-reducing activity by administration to anterior chamber
Format: in vivo, rabbit
Settings: overall conclusion from Examples 1 to 4
Protocol: Test solutions 1 to 3 were prepared as mentioned below. […] Non-white 5 male rabbits were used. Ocular tension was measured under topically anesthetizing the corneal surface with 0.4% oxybuprocaine hydrochloride by using an air impression electronic tonometer (by Japan Alcon Company). The rabbit was fitted in a cylinder, after topically anesthetizing the corneal surface with 0.4% oxybuprocaine hydrochloride, and the test solution 10 μl was injected via cornea in anterior chamber of one eye with an injection needle (30G). To the other eye as a control eye, in the same way as mentioned above, a physiological saline was injected. Ocular tension just before and after injection of the test solution or the physiological saline was measured in accordance with the same method as mentioned above. […] Ocular tension just before and after injection of the test solution and the physiological saline was measured in accordance with the same method as mentioned in Example 1.

O=C(O)CC(O)(CC(=O)O)C(=O)O.O=C1[C@@H]2[C@@H]3CC[C@@H](C3)[C@@H]2C(=O)N1CCCCN1CCN(c2ncccn2)CC1 [tandospirone citrate]
ocular tension-reducing activity (summary in words): have ocular tension-reducing activity

O=C1[C@H]2CCCC[C@H]2C(=O)N1CCCCN1CCN(c2nsc3ccccc23)CC1 [perospirone hydrochloride hydrate]
ocular tension-reducing activity (summary in words): have ocular tension-reducing activity
